The values that follow come from ChEMBL document CHEMBL1795345, “Significant enhancement in radical-scavenging activity of curcuminoids conferred by acetoxy substituent at the central methylene carbon” (Bioorg Med Chem, 2011).

Test [1] concerns Radical scavenging activity. As to the kind of experiment: Antioxidant activity assessed as DPPH radical scavenging activity. Type of test: functional. (In general: DPPH is a stable violet radical that fades when it is reduced.)
In test [2] the test system is Radical scavenging activity. Description: Antioxidant activity assessed as reduction in compound induced DPPH radical scavenging activity at 100 uM in presence of 100 mM acetic acid measured 30 mins after mixing compound with DPPH. Type of test: functional. On the set-up: scale not given: the % may be the effect or the level left.

By EC50 is commonly meant the midpoint of the concentration-response curve. With `C=CC/C(C(=O)/C=C/c1ccc(OC)c(OC)c1)=C(O)\C=C\c1ccc(OC)c(OC)c1`, the EC50 in test [1] is above 100 µM.

Consider `C=CC/C(C(=O)/C=C/c1ccc(O)c(OC)c1)=C(O)\C=C\c1ccc(O)c(OC)c1`, for which the EC50 in test [1] worked out at 23.2 µM.

With `COc1ccc(/C=C/C(=O)/C(OC(C)=O)=C(O)/C=C/c2ccc(OC)cc2)cc1`, the EC50 in test [1] was 32.8 µM. Moreover, in test [2], the Activity was 25%.

Regarding `COc1ccc(/C=C/C(=O)/C=C(O)/C=C/c2ccc(OC)c(OC)c2)cc1OC` [DIMETHYLCURCUMIN], the EC50 in test [1] is above 100 µM.

Regarding `COc1cc(/C=C/C(=O)/C(C)=C(O)/C=C/c2ccc(O)c(OC)c2)ccc1O`, the EC50 in test [1] stood at 23.2 µM.

For `CC(=O)O/C(C(=O)/C=C/c1ccc(O)cc1)=C(O)\C=C\c1ccc(O)cc1`, the EC50 in test [1] stood at 26.3 µM. In addition, the Activity in test [2] was 13%.

As to `CCOC(=S)S/C(C(=O)/C=C/c1ccc(O)c(OC)c1)=C(O)\C=C\c1ccc(O)c(OC)c1`, the EC50 in test [1] was 29.7 µM.

For the compound `COc1cc(/C=C/C(=O)/C(OC(C)=O)=C(O)/C=C/c2ccc(O)c(OC)c2)ccc1O`, the EC50 in test [1] worked out at 8.7 µM. Also, the Activity in test [2] was 10%.

For the compound `CO/C(C(=O)/C=C/c1ccc(O)c(OC)c1)=C(O)\C=C\c1ccc(O)c(OC)c1`, in test [1], the EC50 stood at 30.3 µM.

As for `O=C1O[C@H]([C@@H](O)CO)C(O)=C1O` [ASCORBIC ACID], in test [1], the EC50 was 15.7 µM.

On to `CCOC(=S)S/C(C(=O)/C=C/c1ccc(OC)c(OC)c1)=C(O)\C=C\c1ccc(OC)c(OC)c1`, for which, in test [1], the EC50 is above 100 µM.

Take `COc1ccc(/C=C/C(=O)/C(C)=C(O)/C=C/c2ccc(OC)c(OC)c2)cc1OC`: in test [1], the EC50 is above 100 µM.

For the compound `COc1cc(/C=C/C(=O)/C(OC(C)=O)=C(O)/C=C/c2cc(OC)c(OC)c(OC)c2)cc(OC)c1OC`, the 50% effective concentration (EC50) in test [1] came out at 27.4 µM. Besides, the Activity in test [2] is 25%.

In the case of `CO/C(C(=O)/C=C/c1ccc(OC)c(OC)c1)=C(O)\C=C\c1ccc(OC)c(OC)c1`, in test [1], the EC50 is 75.5 µM.

Take `COc1ccc(/C=C/C(=O)/C(OC(C)=O)=C(O)/C=C/c2ccc(OC)c(OC)c2)cc1OC`: the EC50 in test [1] was determined as 22.1 µM. Moreover, in test [2], the Activity came out at 25%.

Regarding `COc1cc(/C=C/C(=O)/C=C(O)/C=C/c2cc(O)c(O)c(OC)c2)cc(O)c1O`, the EC50 in test [1] is 11.3 µM.

For the compound `CC(=O)O/C(C(=O)/C=C/c1ccccc1)=C(O)\C=C\c1ccccc1`, in test [1], the EC50 is 47.8 µM. Besides, the Activity in test [2] came to 25%.

Consider `O=C(/C=C/c1ccc(O)cc1)CC(=O)/C=C/c1ccc(O)cc1` [BISDEMETHOXYCURCUMIN], for which, in test [1], the EC50 is above 100 µM.

Regarding `O=C(/C=C(O)/C=C/c1ccccc1)/C=C/c1ccccc1`, the EC50 in test [1] was above 100 µM.

Regarding `COc1cc(/C=C/C(=O)/C(OC(C)=O)=C(O)/C=C/c2cc(O)c(O)c(OC)c2)cc(O)c1O`, the EC50 in test [1] amounted to 2.9 µM.

For the compound `COc1ccc(/C=C/C(=O)/C=C(O)/C=C/c2ccc(OC)cc2)cc1`, the EC50 in test [1] was above 100 µM.

Regarding `COc1cc(/C=C/C(=O)CC(=O)/C=C/c2ccc(O)c(OC)c2)ccc1O` [CURCUMIN], in test [1], the EC50 was 22.6 µM. For the same compound, the Activity in test [2] was determined as 10%.
